# Measurements from ChEMBL document CHEMBL4507289, “Data for DCP probe GSM1” (2021).
# What was measured:
# [1] = target: Sigma intracellular receptor 2 (Homo sapiens, UniProt Q5BJF2); experiment: GPCRScan assay: inhibition of Sigma 2; design: radioligand conc. used [nm] 5.0, parental cells HEKT
# [2] = test system: Tyrosine-protein kinase ABL1 (Homo sapiens), P00519 [M351T]; settings: Compound concentration 1000.0 nM
# [3] = test system: Tyrosine-protein kinase ABL1 (Homo sapiens), P00519 [Q252H]; settings: Compound concentration 1000.0 nM
# [4] = target: Bone morphogenetic protein receptor type-2 (Homo sapiens) (UniProt Q13873); settings: Compound concentration 1000.0 nM
# [5] = target: Cytoplasmic tyrosine-protein kinase BMX (Homo sapiens) (UniProt P51813); settings: Compound concentration 1000.0 nM
# Cytoplasmic tyrosine-protein kinase BMX (Homo sapiens), sequence (P51813 whole entry): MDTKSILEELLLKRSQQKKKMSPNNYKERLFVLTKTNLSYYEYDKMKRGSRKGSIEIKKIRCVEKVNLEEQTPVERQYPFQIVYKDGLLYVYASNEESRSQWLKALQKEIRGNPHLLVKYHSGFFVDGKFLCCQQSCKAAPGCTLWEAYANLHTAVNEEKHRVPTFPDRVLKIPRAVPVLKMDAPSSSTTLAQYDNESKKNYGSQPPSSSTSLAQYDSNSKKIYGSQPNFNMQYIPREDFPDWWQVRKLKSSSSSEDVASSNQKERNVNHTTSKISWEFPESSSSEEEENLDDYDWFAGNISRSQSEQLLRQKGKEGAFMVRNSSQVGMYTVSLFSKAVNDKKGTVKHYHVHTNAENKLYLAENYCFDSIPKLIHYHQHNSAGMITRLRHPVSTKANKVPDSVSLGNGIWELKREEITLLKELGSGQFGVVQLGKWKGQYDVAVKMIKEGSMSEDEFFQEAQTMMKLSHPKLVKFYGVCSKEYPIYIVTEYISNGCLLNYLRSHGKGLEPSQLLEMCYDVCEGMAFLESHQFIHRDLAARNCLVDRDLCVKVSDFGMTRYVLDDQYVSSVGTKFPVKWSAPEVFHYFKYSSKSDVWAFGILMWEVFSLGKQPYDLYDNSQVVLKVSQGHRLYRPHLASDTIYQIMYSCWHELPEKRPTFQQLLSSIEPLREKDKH
# [6] = target: Serine/threonine-protein kinase B-raf (Homo sapiens) (UniProt P15056); settings: Compound concentration 1000.0 nM
# [7] = target: Serine/threonine-protein kinase BRSK1 (Homo sapiens) (UniProt Q8TDC3); settings: Compound concentration 1000.0 nM
# [8] = target: Calcium/calmodulin-dependent protein kinase type 1G (Homo sapiens) (UniProt Q96NX5); settings: Compound concentration 1000.0 nM
# [9] = target: Dual specificity protein kinase CLK4 (Homo sapiens) (UniProt Q9HAZ1); settings: Compound concentration 1000.0 nM
# [10] = target: Casein kinase II subunit alpha' (Homo sapiens) (UniProt P19784); settings: Compound concentration 1000.0 nM
# [11] = target: Discoidin domain-containing receptor 2 (Homo sapiens) (UniProt Q16832); settings: Compound concentration 1000.0 nM
# [12] = test system: Epidermal growth factor receptor (Homo sapiens), P00533 [G719C]; settings: Compound concentration 1000.0 nM
# [13] = target: Ephrin type-A receptor 3 (Homo sapiens) (UniProt P29320); settings: Compound concentration 1000.0 nM
# [14] = target: Mitogen-activated protein kinase 6 (Homo sapiens) (UniProt Q16659); settings: Compound concentration 1000.0 nM
# [15] = target: Fibroblast growth factor receptor 2 (Homo sapiens) (UniProt P21802); settings: Compound concentration 1000.0 nM
# [16] = test system: Fibroblast growth factor receptor 3 (Homo sapiens), P22607 [G697C]; settings: Compound concentration 1000.0 nM
# [17] = target: Fibroblast growth factor receptor 4 (Homo sapiens) (UniProt P22455); settings: Compound concentration 1000.0 nM
# [18] = target: Tyrosine-protein kinase Fyn (Homo sapiens) (UniProt P06241); settings: Compound concentration 1000.0 nM
# [19] = target: Rhodopsin kinase GRK1 (Homo sapiens) (UniProt Q15835); settings: Compound concentration 1000.0 nM
# [20] = target: Glycogen synthase kinase-3 beta (Homo sapiens) (UniProt P49841); settings: Compound concentration 1000.0 nM
# [21] = target: Homeodomain-interacting protein kinase 4 (Homo sapiens) (UniProt Q8NE63); settings: Compound concentration 1000.0 nM
# Homeodomain-interacting protein kinase 4 (Homo sapiens), sequence (Q8NE63 whole entry): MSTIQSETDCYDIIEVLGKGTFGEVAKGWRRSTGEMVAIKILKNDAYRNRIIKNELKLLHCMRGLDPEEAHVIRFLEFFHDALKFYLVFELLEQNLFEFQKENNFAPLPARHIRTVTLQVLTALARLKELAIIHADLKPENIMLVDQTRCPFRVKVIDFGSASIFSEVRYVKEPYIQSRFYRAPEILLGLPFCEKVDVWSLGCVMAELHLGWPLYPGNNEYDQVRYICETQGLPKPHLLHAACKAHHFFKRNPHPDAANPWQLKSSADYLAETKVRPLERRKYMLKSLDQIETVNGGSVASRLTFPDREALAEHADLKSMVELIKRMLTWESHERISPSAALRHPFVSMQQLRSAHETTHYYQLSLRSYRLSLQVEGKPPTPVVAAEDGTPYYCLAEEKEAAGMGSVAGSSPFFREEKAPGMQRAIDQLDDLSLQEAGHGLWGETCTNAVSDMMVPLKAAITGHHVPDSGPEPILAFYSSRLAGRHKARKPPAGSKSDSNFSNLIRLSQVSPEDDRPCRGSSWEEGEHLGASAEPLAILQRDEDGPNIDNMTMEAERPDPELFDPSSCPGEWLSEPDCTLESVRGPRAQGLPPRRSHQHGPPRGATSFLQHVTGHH
# [22] = target: Tyrosine-protein kinase Lyn (Homo sapiens) (UniProt P07948); settings: Compound concentration 1000.0 nM
# [23] = target: Dual specificity mitogen-activated protein kinase kinase 4 (Homo sapiens) (UniProt P45985); settings: Compound concentration 1000.0 nM
# [24] = target: Dual specificity mitogen-activated protein kinase kinase 6 (Homo sapiens) (UniProt P52564); settings: Compound concentration 1000.0 nM
# [25] = target: Maternal embryonic leucine zipper kinase (Homo sapiens) (UniProt Q14680); settings: Compound concentration 1000.0 nM
# Maternal embryonic leucine zipper kinase (Homo sapiens), sequence (Q14680 whole entry, looked up): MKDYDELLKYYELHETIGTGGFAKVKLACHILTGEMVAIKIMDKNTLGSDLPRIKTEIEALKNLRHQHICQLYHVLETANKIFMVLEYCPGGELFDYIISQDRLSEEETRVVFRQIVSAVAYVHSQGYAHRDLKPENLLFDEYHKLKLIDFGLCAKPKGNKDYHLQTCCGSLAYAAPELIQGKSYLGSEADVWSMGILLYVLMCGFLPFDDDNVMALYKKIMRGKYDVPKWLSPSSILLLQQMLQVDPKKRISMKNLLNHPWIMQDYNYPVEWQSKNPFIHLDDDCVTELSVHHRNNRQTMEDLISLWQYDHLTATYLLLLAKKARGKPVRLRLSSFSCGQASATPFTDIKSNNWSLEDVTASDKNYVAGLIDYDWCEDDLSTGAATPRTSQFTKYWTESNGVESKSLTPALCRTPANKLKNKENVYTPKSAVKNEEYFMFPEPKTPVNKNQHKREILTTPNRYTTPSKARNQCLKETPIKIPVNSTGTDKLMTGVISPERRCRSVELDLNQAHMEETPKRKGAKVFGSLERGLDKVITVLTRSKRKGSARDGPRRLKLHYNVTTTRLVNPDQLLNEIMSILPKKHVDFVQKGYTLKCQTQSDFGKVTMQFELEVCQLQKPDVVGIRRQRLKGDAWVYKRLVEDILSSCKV
# [26] = target: Mitogen-activated protein kinase kinase kinase 9 (Homo sapiens) (UniProt P80192); settings: Compound concentration 1000.0 nM
# Mitogen-activated protein kinase kinase kinase 9 (Homo sapiens), sequence (P80192 whole entry, looked up): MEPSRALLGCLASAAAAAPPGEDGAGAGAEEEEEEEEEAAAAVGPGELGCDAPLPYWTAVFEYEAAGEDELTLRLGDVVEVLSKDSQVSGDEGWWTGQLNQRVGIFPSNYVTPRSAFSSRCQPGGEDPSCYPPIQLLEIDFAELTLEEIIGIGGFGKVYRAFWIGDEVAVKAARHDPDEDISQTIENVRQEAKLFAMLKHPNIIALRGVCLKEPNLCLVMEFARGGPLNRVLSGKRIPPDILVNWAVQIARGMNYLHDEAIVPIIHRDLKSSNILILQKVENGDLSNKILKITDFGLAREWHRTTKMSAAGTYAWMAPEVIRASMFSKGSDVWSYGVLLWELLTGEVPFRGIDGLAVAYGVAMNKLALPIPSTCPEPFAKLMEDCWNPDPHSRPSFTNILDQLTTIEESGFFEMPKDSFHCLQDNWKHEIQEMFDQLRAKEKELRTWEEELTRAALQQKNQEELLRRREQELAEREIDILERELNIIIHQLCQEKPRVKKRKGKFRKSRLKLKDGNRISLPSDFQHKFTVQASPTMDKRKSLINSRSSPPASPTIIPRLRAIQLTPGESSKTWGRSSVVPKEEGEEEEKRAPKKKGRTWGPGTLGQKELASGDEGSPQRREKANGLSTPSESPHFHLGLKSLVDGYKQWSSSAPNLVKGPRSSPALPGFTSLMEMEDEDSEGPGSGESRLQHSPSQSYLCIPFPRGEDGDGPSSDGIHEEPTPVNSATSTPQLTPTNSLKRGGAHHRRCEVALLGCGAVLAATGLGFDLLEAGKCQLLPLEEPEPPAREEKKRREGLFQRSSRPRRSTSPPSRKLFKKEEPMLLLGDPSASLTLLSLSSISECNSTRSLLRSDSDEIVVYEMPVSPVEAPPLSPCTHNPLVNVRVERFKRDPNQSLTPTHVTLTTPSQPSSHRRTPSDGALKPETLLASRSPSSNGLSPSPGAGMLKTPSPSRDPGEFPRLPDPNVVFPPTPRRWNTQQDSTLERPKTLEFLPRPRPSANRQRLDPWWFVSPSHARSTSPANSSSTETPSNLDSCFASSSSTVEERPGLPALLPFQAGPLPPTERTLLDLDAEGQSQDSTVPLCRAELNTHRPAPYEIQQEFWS
# [27] = target: Mitogen-activated protein kinase 13 (Homo sapiens) (UniProt O15264); settings: Compound concentration 1000.0 nM
# [28] = target: Serine/threonine-protein kinase PAK 6 (Homo sapiens) (UniProt Q9NQU5); settings: Compound concentration 1000.0 nM
# Serine/threonine-protein kinase PAK 6 (Homo sapiens), sequence (Q9NQU5 whole entry, looked up, canonical isoform): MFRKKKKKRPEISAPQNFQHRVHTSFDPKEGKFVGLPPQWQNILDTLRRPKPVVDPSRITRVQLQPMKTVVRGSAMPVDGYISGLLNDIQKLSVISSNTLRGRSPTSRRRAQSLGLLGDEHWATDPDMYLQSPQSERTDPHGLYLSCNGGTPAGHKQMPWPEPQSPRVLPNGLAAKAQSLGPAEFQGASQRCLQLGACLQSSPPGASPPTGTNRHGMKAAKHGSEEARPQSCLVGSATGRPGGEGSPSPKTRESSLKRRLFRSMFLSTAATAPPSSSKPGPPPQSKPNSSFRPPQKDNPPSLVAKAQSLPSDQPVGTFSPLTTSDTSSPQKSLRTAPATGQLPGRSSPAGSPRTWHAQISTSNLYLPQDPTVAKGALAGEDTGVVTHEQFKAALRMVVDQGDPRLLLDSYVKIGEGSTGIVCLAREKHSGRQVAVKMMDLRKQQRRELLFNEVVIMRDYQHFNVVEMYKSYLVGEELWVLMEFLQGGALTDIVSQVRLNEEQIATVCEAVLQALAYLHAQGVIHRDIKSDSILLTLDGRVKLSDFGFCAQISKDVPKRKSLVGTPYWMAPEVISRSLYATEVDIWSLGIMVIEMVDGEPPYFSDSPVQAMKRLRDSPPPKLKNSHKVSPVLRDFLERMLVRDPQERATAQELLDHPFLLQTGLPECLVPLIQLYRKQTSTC
# [29] = target: Phosphorylase b kinase gamma catalytic chain, skeletal muscle/heart isoform (Homo sapiens) (UniProt Q16816); settings: Compound concentration 1000.0 nM
# [30] = target: Phosphatidylinositol 4-phosphate 3-kinase C2 domain-containing subunit beta (Homo sapiens) (UniProt O00750); settings: Compound concentration 1000.0 nM
# [31] = target: cAMP-dependent protein kinase catalytic subunit alpha (Homo sapiens) (UniProt P17612); settings: Compound concentration 1000.0 nM
# [32] = target: Serine/threonine-protein kinase N2 (Homo sapiens) (UniProt Q16513); settings: Compound concentration 1000.0 nM
# [33] = target: Serine/threonine-protein kinase PLK1 (Homo sapiens) (UniProt P53350); settings: Compound concentration 1000.0 nM
# [34] = target: cGMP-dependent protein kinase 2 (Homo sapiens) (UniProt Q13237); settings: Compound concentration 1000.0 nM
# cGMP-dependent protein kinase 2 (Homo sapiens), sequence (Q13237 whole entry): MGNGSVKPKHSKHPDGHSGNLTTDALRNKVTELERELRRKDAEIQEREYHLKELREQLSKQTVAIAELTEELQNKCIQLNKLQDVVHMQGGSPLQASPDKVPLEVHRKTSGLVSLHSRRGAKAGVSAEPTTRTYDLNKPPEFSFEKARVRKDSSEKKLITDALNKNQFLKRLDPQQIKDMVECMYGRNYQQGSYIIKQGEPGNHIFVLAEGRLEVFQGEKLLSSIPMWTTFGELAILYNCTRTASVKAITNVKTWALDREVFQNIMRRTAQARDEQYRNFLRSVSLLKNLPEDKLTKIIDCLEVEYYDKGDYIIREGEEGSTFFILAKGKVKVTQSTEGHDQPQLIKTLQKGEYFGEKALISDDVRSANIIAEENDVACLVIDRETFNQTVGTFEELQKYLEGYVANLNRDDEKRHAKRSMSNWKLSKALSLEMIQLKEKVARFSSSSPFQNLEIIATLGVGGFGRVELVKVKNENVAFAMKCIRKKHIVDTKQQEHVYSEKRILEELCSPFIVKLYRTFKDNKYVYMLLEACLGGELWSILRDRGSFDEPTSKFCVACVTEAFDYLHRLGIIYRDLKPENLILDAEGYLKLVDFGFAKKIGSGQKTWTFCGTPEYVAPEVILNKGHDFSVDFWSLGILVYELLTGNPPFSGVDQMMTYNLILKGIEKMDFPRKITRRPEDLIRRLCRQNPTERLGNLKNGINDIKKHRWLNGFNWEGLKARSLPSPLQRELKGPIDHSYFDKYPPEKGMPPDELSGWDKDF
# [35] = target: Serine/threonine-protein kinase SIK3 (Homo sapiens) (UniProt Q9Y2K2); settings: Compound concentration 1000.0 nM
# [36] = target: Proto-oncogene tyrosine-protein kinase receptor Ret (Homo sapiens) (UniProt P07949); settings: Compound concentration 1000.0 nM
# [37] = test system: Proto-oncogene tyrosine-protein kinase receptor Ret (Homo sapiens), P07949 [V804M]; settings: Compound concentration 1000.0 nM
# [38] = target: Ribosomal protein S6 kinase alpha-2 (Homo sapiens) (UniProt Q15349); settings: Compound concentration 1000.0 nM
# [39] = target: SNF-related serine/threonine-protein kinase (Homo sapiens) (UniProt Q9NRH2); settings: Compound concentration 1000.0 nM
# [40] = target: Serine/threonine-protein kinase TBK1 (Homo sapiens) (UniProt Q9UHD2); settings: Compound concentration 1000.0 nM
# [41] = target: Testis-specific serine/threonine-protein kinase 3 (Homo sapiens) (UniProt Q96PN8); settings: Compound concentration 1000.0 nM
# Testis-specific serine/threonine-protein kinase 3 (Homo sapiens), sequence (Q96PN8 whole entry): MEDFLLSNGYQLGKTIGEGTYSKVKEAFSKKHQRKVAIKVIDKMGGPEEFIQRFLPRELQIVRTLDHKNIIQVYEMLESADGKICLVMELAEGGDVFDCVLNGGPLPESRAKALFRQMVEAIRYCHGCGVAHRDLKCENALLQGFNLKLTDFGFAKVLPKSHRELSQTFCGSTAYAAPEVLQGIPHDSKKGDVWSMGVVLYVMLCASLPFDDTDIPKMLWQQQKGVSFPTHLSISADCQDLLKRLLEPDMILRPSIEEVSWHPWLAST
# [42] = target: Serine/threonine-protein kinase ULK1 (Homo sapiens) (UniProt O75385); settings: Compound concentration 1000.0 nM
# [43] = target: Tyrosine-protein kinase Yes (Homo sapiens) (UniProt P07947); settings: Compound concentration 1000.0 nM
# [44] = target: 5-hydroxytryptamine receptor 7 (Homo sapiens) (UniProt P34969); settings: Compound concentration 10.0 uM
# [45] = target: Sigma non-opioid intracellular receptor 1 (Homo sapiens) (UniProt Q99720); settings: Compound concentration 10.0 uM
# Sigma intracellular receptor 2, sequence (Q5BJF2 whole entry): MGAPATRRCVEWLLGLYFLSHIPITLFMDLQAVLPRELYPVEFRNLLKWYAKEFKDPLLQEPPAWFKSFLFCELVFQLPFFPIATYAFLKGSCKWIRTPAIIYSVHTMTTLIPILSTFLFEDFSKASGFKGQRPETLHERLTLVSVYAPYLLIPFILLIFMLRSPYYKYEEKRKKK
smiles,measurement,setting,value
COc1cc(-c2cn([C@H]3CCc4c(F)cccc4N(CC(F)(F)F)C3=O)nn2)ccc1-n1cnc(C)c1,Ki,[1]; read-out: Ki,0.89 µM
same,residual activity,[2],95%
same,residual activity,[3],100%
same,residual activity,[4],100%
same,residual activity,[5],100%
same,residual activity,[6],100%
same,residual activity,[7],92%
same,residual activity,[8],100%
same,residual activity,[9],100%
same,residual activity,[10],100%
same,residual activity,[11],100%
same,residual activity,[12],94%
same,residual activity,[13],97%
same,residual activity,[14],100%
same,residual activity,[15],100%
same,residual activity,[16],100%
same,residual activity,[17],100%
same,residual activity,[18],100%
same,residual activity,[19],99%
same,residual activity,[20],100%
same,residual activity,[21],100%
same,residual activity,[22],100%
same,residual activity,[23],93%
same,residual activity,[24],100%
same,residual activity,[25],100%
same,residual activity,[26],100%
same,residual activity,[27],100%
same,residual activity,[28],100%
same,residual activity,[29],78%
same,residual activity,[30],100%
same,residual activity,[31],100%
same,residual activity,[32],100%
same,residual activity,[33],100%
same,residual activity,[34],100%
same,residual activity,[35],100%
same,residual activity,[36],84%
same,residual activity,[37],88%
same,residual activity,[38],100%
same,residual activity,[39],100%
same,residual activity,[40],100%
same,residual activity,[41],97%
same,residual activity,[42],100%
same,residual activity,[43],100%
same,inhibition,[44],26.8%
same,inhibition,[45],26.6%
COc1cc(-c2cn([C@H]3CCc4ccccc4N(CC(F)(F)F)C3=O)nn2)ccc1-n1ccc(C)n1,Ki,[1]; read-out: Ki,0.835 µM
same,Ki,[1]; read-out: pKi (converted),0.741 µM
same,residual activity,[2],64%
same,residual activity,[3],71%
same,residual activity,[4],100%
same,residual activity,[5],100%
same,residual activity,[6],100%
same,residual activity,[7],81%
same,residual activity,[8],100%
same,residual activity,[9],80%
same,residual activity,[10],84%
same,residual activity,[11],99%
same,residual activity,[12],100%
same,residual activity,[13],95%
same,residual activity,[14],100%
same,residual activity,[15],100%
same,residual activity,[16],90%
same,residual activity,[17],100%
same,residual activity,[18],94%
same,residual activity,[19],80%
same,residual activity,[20],85%
same,residual activity,[21],100%
same,residual activity,[22],100%
same,residual activity,[23],100%
same,residual activity,[24],100%
same,residual activity,[25],96%
same,residual activity,[26],91%
same,residual activity,[27],88%
same,residual activity,[28],100%
same,residual activity,[29],80%
same,residual activity,[30],100%
same,residual activity,[31],100%
same,residual activity,[32],98%
same,residual activity,[33],84%
same,residual activity,[34],85%
same,residual activity,[35],92%
same,residual activity,[36],91%
same,residual activity,[37],100%
same,residual activity,[38],99%
same,residual activity,[39],99%
same,residual activity,[40],88%
same,residual activity,[41],100%
same,residual activity,[42],76%
same,residual activity,[43],100%
same,inhibition,[44],5.84%
same,inhibition,[45],23.2%
